Here are results for five molecules from patent US8916557B2, “Substituted 4-Aryl-N-phenyl-1,3,5-triazin-2-amines” (Bayer Intellectual Property GmbH, priority 2011, dated 2014).

Data set [1] deals with HeLa-MaTu-ADR, multidrug-resistant human cervical carcinoma cells. Description: Proliferation assay (crystal violet), HeLa-MaTu-ADR. The data set is classed as cell-based. The conditions noted are these: read-out: Inhibition of HeLa/MaTu/ADR cell proliferation. How it is done:
(§1) Cultivated tumour cells (NCI-H460, human non-small cell lung carcinoma cells, ATCC HTB-177; DU 145, hormone-independent human prostate carcinoma cells, ATCC HTB-81; HeLa-MaTu, human cervical carcinoma cells, EPO-GmbH, Berlin; HeLa-MaTu-ADR, multidrug-resistant human cervical carcinoma cells, EPO-GmbH, Berlin; HeLa human cervical tumour cells, ATCC CCL-2; Caco-2 human colorectal carcinoma, ATCC HTB-37; B16F10 mouse melanoma cells, ATCC CRL-6475) were plated at a density of 5000 cells/well (DU145, HeLa-MaTu-ADR), 3000 cells/well (NCI-H460, HeLa-MaTu, HeLa), 1500 cells/well (Caco-2), or 1000 cells/well (B16F10) in a 96-well multititer plate in 200 μL of their respective growth medium supplemented 10% fetal calf serum. After 24 hours, the cells of one plate (zero-point plate) were stained with crystal violet (see below), while the medium of the other plates was replaced by fresh culture medium (200 μl), to which the test substances were added in various concentrations (0 μM, as well as in the range of 0.001-10 μM; the final concentration of the solvent dimethyl sulfoxide was 0.5%). The cells were incubated for 4 days in the presence of test substances. Cell proliferation was determined by staining the cells with crystal violet: the cells were fixed by adding 20 μl/measuring point of an 11% glutaric aldehyde solution for 15 minutes at room temperature. After three washing cycles of the fixed cells with water, the plates were dried at room temperature. The cells were stained by adding 100 μl/measuring point of a 0.1% crystal violet solution (pH 3.0). After three washing cycles of the stained cells with water, the plates were dried at room temperature. The dye was dissolved by adding 100 μl/measuring point of a 10% acetic acid solution. The extinction was determined by photometry at a wavelength of 595 nm. The change of cell number, in percent, was calculated by normalization of the measured values to the extinction values of the zero-point plate (=0%) and the extinction of the untreated (0 μm) cells (=100%). The IC50 values were determined by means of a 4 parameter fit.

In data set [2] the test system is DU 145, hormone-independent human prostate carcinoma cells. Description: Proliferation assay (crystal violet), DU 145. The data set is classed as cell-based. The conditions noted are these: DU145 cells, read-out: Inhibition of DU145 cell proliferation.
Description: Cultivated tumour cells (NCI-H460, human non-small cell lung carcinoma cells, ATCC HTB-177; DU 145, hormone-independent human prostate carcinoma cells, ATCC HTB-81; HeLa-MaTu, human cervical carcinoma cells, EPO-GmbH, Berlin; HeLa-MaTu-ADR, multidrug-resistant human cervical carcinoma cells, EPO-GmbH, Berlin; HeLa human cervical tumour cells, ATCC CCL-2; Caco-2 human colorectal carcinoma, ATCC HTB-37; B16F10 mouse melanoma cells, ATCC CRL-6475) were plated at a density of 5000 cells/well (DU145, HeLa-MaTu-ADR), 3000 cells/well (NCI-H460, HeLa-MaTu, HeLa), 1500 cells/well (Caco-2), or 1000 cells/well (B16F10) in a 96-well multititer plate in 200 μL of their respective growth medium supplemented 10% fetal calf serum. […] Cell proliferation was determined by staining the cells with crystal violet: the cells were fixed by adding 20 μl/measuring point of an 11% glutaric aldehyde solution for 15 minutes at room temperature. […] The extinction was determined by photometry at a wavelength of 595 nm. The change of cell number, in percent, was calculated by normalization of the measured values to the extinction values of the zero-point plate (=0%) and the extinction of the untreated (0 μm) cells (=100%). The IC50 values were determined by means of a 4 parameter fit.
The test system of data set [3] is NCI-H460, human non-small cell lung carcinoma cells. Description: Proliferation assay (crystal violet), NCI-H460. The data set is classed as cell-based. The conditions noted are these: read-out: Inhibition of H460 cell proliferation (activity range). The method, then:
as §1

The test system of data set [4] is Caco-2 human colorectal carcinoma. Description: Proliferation assay (crystal violet), Caco-2. The data set is classed as cell-based. The conditions noted are these: CACO-2 cells, read-out: Inhibition of CACO-2 cell proliferation.
The test system of data set [5] is B16F10 mouse melanoma cells. Description: Proliferation assay (crystal violet), B16F10. The data set is classed as cell-based. The conditions noted are these: B16-F10, read-out: Inhibition of B16F10 cell proliferation. The method, then: as §1
The target of another data set is T1, CDK9/CycT1 (Homo sapiens, UniProt P50750).
T1 construct: Recombinant full-length His-tagged human CDK9 and CycT1; His; purchased Invitrogen PV4131; host or cells: insect cells
Description: CDK9/CycT1 kinase assay (TR-FRET). The data set is classed as biochemical. The conditions noted are these: Method 1, 10 μM ATP. In a few lines: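 Full-length His-tagged human CDK9/CycT1 (insect-cell expressed), 15 min compound pre-incubation, then 25 min at 22 °C with 10 µM ATP (final) and 1 µM biotinylated peptide (final) in Tris pH 8.0/MgCl2 buffer. Phospho-substrate detected by TR-FRET (anti-RB pSer807/pSer811, Eu anti-mouse IgG, streptavidin-XL665); 665/622 nm emission ratio as read-out.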
On the technique in general: Time-resolved FRET reads energy transfer from a long-lived donor to a nearby acceptor.

Data set [6] concerns HeLa human cervical tumour cells. Put plainly: Proliferation assay (crystal violet), HeLa. The data set is classed as cell-based. The conditions noted are these: read-out: Inhibition of HeLa cell proliferation.
The target of the next data set is T2, CDK2/CycE (Homo sapiens, UniProt P24941).
T2 construct: GST; purchased ProQinase GmbH (Freiburg, Germany); host or cells: insect cells (Sf9)
Description: CDK2/CycE kinase assay (TR-FRET). The data set is classed as biochemical. The conditions noted are these: Method 2, 10 μM ATP. In a few lines: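 TR-FRET read-out: emission ratio 665/620 nm via anti-RB(pSer807/pSer811) antibody, Eu-anti-mouse IgG and streptavidin-XL665. Kinase reaction: insect-cell GST-CDK2/CycE, compound pre-bound 15 min, 10 μM ATP final, 0.75 μM biotin-peptide, 25 min, 22 °C, pH 8.0.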

The next data set in a line: Caco-2 permeation assay. The data set is classed as in vitro ADME. The conditions noted are these: human.

pIC50: −log10 of the molar value.

T1 sequence (P50750 whole entry): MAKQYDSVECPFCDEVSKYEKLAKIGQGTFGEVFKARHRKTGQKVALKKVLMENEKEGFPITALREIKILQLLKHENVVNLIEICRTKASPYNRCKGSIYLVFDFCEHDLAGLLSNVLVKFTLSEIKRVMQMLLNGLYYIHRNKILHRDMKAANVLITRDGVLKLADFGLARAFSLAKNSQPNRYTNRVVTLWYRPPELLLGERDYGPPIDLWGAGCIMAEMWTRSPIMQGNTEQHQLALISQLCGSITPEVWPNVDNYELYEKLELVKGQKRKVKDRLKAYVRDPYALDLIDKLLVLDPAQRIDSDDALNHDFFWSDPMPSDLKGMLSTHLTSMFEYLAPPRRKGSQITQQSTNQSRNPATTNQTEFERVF
T1 sequence (O60563 whole entry partner): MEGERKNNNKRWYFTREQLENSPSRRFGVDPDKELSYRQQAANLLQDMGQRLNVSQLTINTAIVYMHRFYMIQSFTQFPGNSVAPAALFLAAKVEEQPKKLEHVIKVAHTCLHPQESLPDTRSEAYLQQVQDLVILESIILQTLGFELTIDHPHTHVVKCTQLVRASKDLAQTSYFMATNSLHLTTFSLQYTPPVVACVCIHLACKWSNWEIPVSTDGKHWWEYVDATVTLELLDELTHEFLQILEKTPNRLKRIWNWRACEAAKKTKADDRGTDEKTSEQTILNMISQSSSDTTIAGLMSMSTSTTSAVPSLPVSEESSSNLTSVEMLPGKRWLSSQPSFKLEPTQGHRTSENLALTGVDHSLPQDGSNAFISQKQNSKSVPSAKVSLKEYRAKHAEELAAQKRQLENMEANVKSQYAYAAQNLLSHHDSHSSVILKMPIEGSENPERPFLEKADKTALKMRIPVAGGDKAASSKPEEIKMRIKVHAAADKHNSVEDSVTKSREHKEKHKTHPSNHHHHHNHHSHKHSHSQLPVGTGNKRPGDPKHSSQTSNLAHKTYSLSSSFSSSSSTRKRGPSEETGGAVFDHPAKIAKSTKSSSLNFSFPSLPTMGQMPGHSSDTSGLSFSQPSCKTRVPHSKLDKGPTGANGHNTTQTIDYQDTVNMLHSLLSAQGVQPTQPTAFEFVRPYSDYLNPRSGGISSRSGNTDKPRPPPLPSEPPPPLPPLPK
Description for Caco-2 permeation assay: Cells were maintained at 37° C. in a humified 5% CO2 atmosphere. Medium was changed every 2-3 day. Before running the permeation assay, the culture medium was replaced by a FCS-free hepes-carbonate transport buffer (pH 7.2). For assessment of monolayer integrity the transepithelial electrical resistance (TEER) was measured. Test compounds were predissolved in DMSO and added either to the apical or basolateral compartment in final concentration of 2 μM in transport buffer. Before and after 2 h incubation at 37° C. samples were taken from both compartments. Analysis of compound content was done after precipitation with methanol by LC/MS/MS analysis. Apparent permeability (Papp) was calculated in the apical to basolateral (Papp A→B) and basolateral to apical (Papp B→A) directions. The apparent permeability was calculated using following equation: Papp=(Vr/Po)(1/S)(P2/t)
Where Vr is the volume of medium in the receiver chamber, Po is the measured peak area or height of the test drug in the donor chamber at t=o, S the surface area of the monolayer, P2 is the measured peak area of the test drug in the acceptor chamber after 2 h of incubation, and t is the incubation time. The efflux ratio basolateral (B) to apical (A) was calculated by dividing the Papp B−A by the Papp A-B. In addition the compound recovery was calculated. The following reference compounds were used for the classification of the permeability class: Antipyrine, Pyrazosin, Verapamil, Fluvastatin, Cimetidine, Ranitidine, Atenolol, Sulfasalazine.

Consider `CS(=O)(=O)Cc1cccc(Nc2ncnc(-c3ccc(F)cc3OCc3ccc(F)c(F)c3)n2)c1` [Example 86, 4-{2-[(3,4-Difluoro-benzyl)oxy]-4-fluorophenyl}-N-{3-[(methylsulfonyl)-methyl]phenyl}-1,3,5-triazin-2-amine], for which the pIC50 was 6.66 in [1]; 6.64 in data set [2]; 6.57 in data set [3]; 6.70 in [4]; 6.60 in data set [5]; 8.22 against CDK9/CycT1. Also, the pIC50 in [6] is 6.60.

`CS(=O)(=O)Cc1cccc(Nc2ncnc(-c3ccccc3OCc3cccc(F)c3)n2)c1` [Example 26, 4-{2-[(3-Fluorobenzyl)oxy]phenyl}-N-{3-[(methylsulfonyl)methyl]phenyl}-1,3,5-triazin-2-amine]: the results for the pIC50 (at CDK2/CycE; against CDK9/CycT1; in data set [6]) were 6.54, 8.52 and 6.28, respectively. Further, the efflux ratio at 2 h, 2 μM in “Caco-2 permeation assay” (Caco-2, pH 7.2) was found to be 0.43. Also, the apical-to-basolateral permeability (Papp A→B) at 2 h, 2 μM in the data set “Caco-2 permeation assay” (Caco-2 monolayer, 2 μM test compound, 2 h, pH 7.2, read-out: Papp A-B (Mari)) was 16.9 ×10⁻⁶ cm/s. Further, in the data set “Caco-2 permeation assay” (Caco-2 monolayer, 2 μM test compound, 2 h, pH 7.2, read-out: Papp B-A (Mari)), the Papp B→A at 2 h, 2 μM stood at 7.2 ×10⁻⁶ cm/s.

Consider `CS(=O)(=O)Cc1cccc(Nc2ncnc(-c3ccc(F)cc3OCc3cc(F)cc(F)c3F)n2)c1` [Example 84, 4-{4-Fluoro-2-[(2,3,5-trifluorobenzyl)oxy]phenyl}-N-{3-[(methylsulfonyl)methyl]-phenyl}-1,3,5-triazin-2-amine], for which the pIC50 in [1] was 6.55; in [2] it was 6.46; in data set [3] it was 6.51; in data set [4] it was 6.49; in data set [5], 6.31; on CDK9/CycT1, 8.52. In data set [6], the pIC50 was 6.47.

Consider `CS(=O)(=O)Cc1cccc(Nc2ncnc(-c3ccc(F)cc3OCCC3CC3)n2)c1` [Example 48, 4-[2-(2-Cyclopropylethoxy)-4-fluorophenyl]-N-{3-[(methylsulfonyl)methyl]phenyl}-1,3,5-triazin-2-amine], for which the pIC50 is 5.89 on CDK2/CycE, 7.54 against CDK9/CycT1 and 6.00 in data set [6].

Consider `CS(=O)(=O)Cc1cccc(Nc2ncnc(-c3ccc(F)cc3OCCC3CCCC3)n2)c1` [Example 53, 4-[2-(2-Cyclopentylethoxy)-4-fluorophenyl]-N-{3-[(methylsulfonyl)methyl]phenyl}-1,3,5-triazin-2-amine], for which the pIC50 is 6.02 against CDK2/CycE, 7.80 against CDK9/CycT1 and 5.89 in data set [6].

Usually efflux ratio stands for the permeability from basolateral to apical divided by that in the opposite direction, in the common usage. The term Papp A→B denotes how fast a substance crosses the layer from the apical side. Broadly, the Papp B→A is the apparent permeability from the basolateral to the apical side of a cell layer.
